Test results as given in patent publication US11446351B2, “Composition for treating one or more estrogen related diseases” (LIFEARC, priority 2018, dated 2022).
Where a name gives a salt, the structure may show the parent alone. Where a SMILES comes first, the peptide text is derived from it. [ ]: non-standard residue; d: D form. dPhe(4-Cl) = N[C@H](Cc1ccc(Cl)cc1)C(=O)O; d2Nal = N[C@H](Cc1ccc2ccccc2c1)C(=O)O; d(hCit) = NC(=O)NCCCC[C@@H](N)C(=O)O; Lys(iPr) = CC(C)NCCCC[C@H](N)C(=O)O; d3Pal = N[C@H](Cc1cccnc1)C(=O)O

Columns and labels:
Assay type in all cases: in vivo, human
[1] = tested on: healthy female subjects; experiment: Phase I trial (Example 1): progesterone, LH and FSH in serum
Method: (§1) A phase I clinical trial with formulation A and B (and placebo) was conducted in order to evaluate the pharmacokinetics, pharmacodynamics, safety and tolerability of Teverelix TFA.
(§2) The formulations were each injected subcutaneous (s.c.) as follows: • A single dosage of formulation A (60 mg Teverelix TFA) administered s.c. on day 3±1 of the menstrual cycle, to 8 healthy female subjects • A single dosage of formulation A placebo was administered s.c. to on day 3±1 of the menstrual cycle, to 4 healthy female subjects • Two dosages of formulation B (45 mg Teverelix TFA) administered s.c. to 8 healthy female subjects. The first dosage on day 3±1 of the menstrual cycle and a second dosage administered on day 10±1 of the menstrual cycle, and • two dosages of formulation B placebo was administered s.c. to 4 healthy female subjects. The first dosage on day 3±1 of the […] menstrual cycle and a second dosage administered on day 10±1 of the menstrual cycle.

[2] = tested on: women; experiment: Phase I study (Example 2): estradiol concentrations in serum
Method: Two formulations comprising either 45 mg or 30 mg Teverelix TFA and a placebo formulations, were prepared as described in example 1, i.e. the following formulations were prepared
The respective formulations were each injected subcutaneous (s.c.) to 24 subjects—12 per group i.e. 8 on active drug 4 on placebo per group. All subjects received a dose on either the active or placebo s.c. on day 3±1 of the menstrual cycle, i.e. • A single dosage of formulation B (45 mg Teverelix TFA) administered s.c. on day 3±1 of the menstrual cycle, • A single dosages of formulation C (30 mg Teverelix TFA) administered s.c. on day 3±1 of the menstrual cycle, and • A single dosage of formulation B placebo or formulation C placebo administered s.c. on day 3±1 of the menstrual cycle.
The concentration of Teverelix TFA, and Estradiol was measured over a period of 63 days. Additionally, the effect on Teverelix TFA on two bone markers was measured.
The mean estradiol concentration in the respective subjects was measured as described in example 1.

[3] = tested on: healthy female subjects; experiment: Phase I trial (Example 1): estradiol concentration in serum
Method: The Teverelix TFA formulations were manufactured as followed. 0.8 ml or 0.6 ml 5% mannitol were added to the relevant dosage of 60 or 45 mg of the LHRH antagonist Teverelix® trifluoroacetate, respectively. The mixture was stirred using vortex during one minute providing two dosage formulations of Teverelix TFA in a flowing milky pearly microcrystalline aqueous suspensions. The suspensions are made of microcrystals of about 10 μm length. Corresponding placebo formulations, without Teverelix TFA was also prepared
as §1, §2
The mean estradiol concentration in the respective subjects was measured. The results are shown in table 1 and 2, respectively and is depicted in FIG. 1 in relation to the placebo data.

CC(=O)N[C@H](Cc1ccc2ccccc2c1)C(=O)N[C@H](Cc1ccc(Cl)cc1)C(=O)N[C@H](Cc1cccnc1)C(=O)N[C@@H](CO)C(=O)N[C@@H](Cc1ccc(O)cc1)C(=O)N[C@H](CCCCNC(N)=O)C(=O)N[C@@H](CC(C)C)C(=O)N[C@@H](CCCCNC(C)C)C(=O)N1CCC[C@H]1C(=O)N[C@H](C)C(N)=O [Teverelix TFA, N-Ac-d-Nal^1,d-pCl-Phe^2,d-Pal^3,d-(Hci)^6,Lys(iPr)^8,d-Ala^10 trifluoroacetate] (Ac-[d2Nal][dPhe(4-Cl)][d3Pal]SY[d(hCit)]L[Lys(iPr)]P[dA]-NH2; C-terminus assumed)
concentration of progesterone following dosing ([1]; FIG. 2): decreased
concentration of LH following dosing ([1]; FIG. 3): decreased
concentration of FSH following dosing ([1]; FIG. 4): decreased
Mean Estradiol concentration in serum ([2]; 30 mg dosage, day 0 (baseline)): 27.7 ng/L
Mean Estradiol concentration in serum ([2]; 30 mg dosage, day 0.25): 16.1 ng/L
Mean Estradiol concentration in serum ([2]; 30 mg dosage, day 0.5): 13.8 ng/L
Mean Estradiol concentration in serum ([2]; 30 mg dosage, day 1): 12.3 ng/L
Mean Estradiol concentration in serum ([2]; 30 mg dosage, day 2 (nadir)): 11.2 ng/L
Mean Estradiol concentration in serum ([2]; 30 mg dosage, day 3): 13.7 ng/L
Mean Estradiol concentration in serum ([2]; 30 mg dosage, day 4): 19.4 ng/L
Mean Estradiol concentration in serum ([2]; 30 mg dosage, day 5): 22.6 ng/L
Mean Estradiol concentration in serum ([2]; 30 mg dosage, day 6): 24.4 ng/L
Mean Estradiol concentration in serum ([2]; 30 mg dosage, day 7): 31.0 ng/L
Mean Estradiol concentration in serum ([2]; 30 mg dosage, day 9): 50.2 ng/L
Mean Estradiol concentration in serum ([2]; 30 mg dosage, day 11): 46.5 ng/L
Mean Estradiol concentration in serum ([2]; 30 mg dosage, day 13): 59.9 ng/L
Mean Estradiol concentration in serum ([2]; 30 mg dosage, day 15): 36.3 ng/L
Mean Estradiol concentration in serum ([2]; 30 mg dosage, day 17): 38.7 ng/L
Mean Estradiol concentration in serum ([2]; 30 mg dosage, day 19): 51.4 ng/L
Mean Estradiol concentration in serum ([2]; 30 mg dosage, day 21): 64.5 ng/L
Mean Estradiol concentration in serum ([2]; 30 mg dosage, day 28): 67.4 ng/L
Mean Estradiol concentration in serum ([2]; 30 mg dosage, day 35): 60.7 ng/L
Mean Estradiol concentration in serum ([2]; 30 mg dosage, day 42): 58.6 ng/L
Mean Estradiol concentration in serum ([2]; 30 mg dosage, day 49): 60.5. ng/L
Mean Estradiol concentration in serum ([2]; 30 mg dosage, day 56): 105.1 ng/L
Mean Estradiol concentration in serum ([2]; 30 mg dosage, day 63): 90.7 ng/L
mean estradiol level over the prolonged period ([2]; 30 mg dose): 40.5 pg/mL
day on which estradiol levels returned to baseline ([2]; 30 mg group): ≤ 8 days
women who ovulated during the study period (based on peak estradiol levels) ([2]; 30 mg group): one of the 8
Mean Estradiol concentration in serum ([2]; 45 mg dosage, day 0 (baseline)): 21.5 ng/L
Mean Estradiol concentration in serum ([2]; 45 mg dosage, day 0.25): 16.3 ng/L
Mean Estradiol concentration in serum ([2]; 45 mg dosage, day 0.5): 11.5 ng/L
Mean Estradiol concentration in serum ([2]; 45 mg dosage, day 1): 8.4 ng/L
Mean Estradiol concentration in serum ([2]; 45 mg dosage, day 2 (nadir)): 7.5 ng/L
Mean Estradiol concentration in serum ([2]; 45 mg dosage, day 3): 11.4 ng/L
Mean Estradiol concentration in serum ([2]; 45 mg dosage, day 4): 12.3 ng/L
Mean Estradiol concentration in serum ([2]; 45 mg dosage, day 5): 13.3 ng/L
Mean Estradiol concentration in serum ([2]; 45 mg dosage, day 6): 17.5 ng/L
Mean Estradiol concentration in serum ([2]; 45 mg dosage, day 7): 17.8 ng/L
Mean Estradiol concentration in serum ([2]; 45 mg dosage, day 9): 22.6 ng/L
Mean Estradiol concentration in serum ([2]; 45 mg dosage, day 11): 36.4 ng/L
Mean Estradiol concentration in serum ([2]; 45 mg dosage, day 13): 54.9 ng/L
Mean Estradiol concentration in serum ([2]; 45 mg dosage, day 15): 91.6 ng/L
Mean Estradiol concentration in serum ([2]; 45 mg dosage, day 17): 105.9 ng/L
Mean Estradiol concentration in serum ([2]; 45 mg dosage, day 19): 115.1 ng/L
Mean Estradiol concentration in serum ([2]; 45 mg dosage, day 21): 126.1 ng/L
Mean Estradiol concentration in serum ([2]; 45 mg dosage, day 28): 80.9 ng/L
Mean Estradiol concentration in serum ([2]; 45 mg dosage, day 35): 41.6 ng/L
Mean Estradiol concentration in serum ([2]; 45 mg dosage, day 42): 67.4 ng/L
Mean Estradiol concentration in serum ([2]; 45 mg dosage, day 49): 92.4 ng/L
Mean Estradiol concentration in serum ([2]; 45 mg dosage, day 56): 104.9 ng/L
Mean Estradiol concentration in serum ([2]; 45 mg dosage, day 63): 47.1 ng/L
mean estradiol level over the prolonged period ([2]; 45 mg dose): 49.0 pg/mL
day on which estradiol levels returned to baseline ([2]; 45 mg group): ≤ 9 days
women who ovulated during the study period (based on peak estradiol levels) ([2]; 45 mg group): 5 of the 8
Mean Estradiol concentration in serum ([2]; 30 + 45 mg groups, day 0 (baseline)): 24.6 ng/L
Mean Estradiol concentration in serum ([2]; 30 + 45 mg groups, day 0.25): 16.2 ng/L
Mean Estradiol concentration in serum ([2]; 30 + 45 mg groups, day 0.5): 12.7 ng/L
Mean Estradiol concentration in serum ([2]; 30 + 45 mg groups, day 1): 10.4 ng/L
Mean Estradiol concentration in serum ([2]; 30 + 45 mg groups, day 2): 9.4 ng/L
Mean Estradiol concentration in serum ([2]; 30 + 45 mg groups, day 3): 12.6 ng/L
Mean Estradiol concentration in serum ([2]; 30 + 45 mg groups, day 4): 15.8 ng/L
Mean Estradiol concentration in serum ([2]; 30 + 45 mg groups, day 5): 17.9 ng/L
Mean Estradiol concentration in serum ([2]; 30 + 45 mg groups, day 6): 20.9 ng/L
Mean Estradiol concentration in serum ([2]; 30 + 45 mg groups, day 7): 24.4 ng/L
Mean Estradiol concentration in serum ([2]; 30 + 45 mg groups, day 9): 36.4 ng/L
Mean Estradiol concentration in serum ([2]; 30 + 45 mg groups, day 11): 41.8 ng/L
Mean Estradiol concentration in serum ([2]; 30 + 45 mg groups, day 13): 57.2 ng/L
Mean Estradiol concentration in serum ([2]; 30 + 45 mg groups, day 15): 64.0 ng/L
Mean Estradiol concentration in serum ([2]; 30 + 45 mg groups, day 17): 72.3 ng/L
Mean Estradiol concentration in serum ([2]; 30 + 45 mg groups, day 19): 83.3 ng/L
Mean Estradiol concentration in serum ([2]; 30 + 45 mg groups, day 21): 95.3 ng/L
Mean Estradiol concentration in serum ([2]; 30 + 45 mg groups, day 28): 74.1 ng/L
Mean Estradiol concentration in serum ([2]; 30 + 45 mg groups, day 35): 51.1 ng/L
Mean Estradiol concentration in serum ([2]; 30 + 45 mg groups, day 42): 63.0 ng/L
Mean Estradiol concentration in serum ([2]; 30 + 45 mg groups, day 49): 76.4 ng/L
Mean Estradiol concentration in serum ([2]; 30 + 45 mg groups, day 56): 105.0 ng/L
Mean Estradiol concentration in serum ([2]; 30 + 45 mg groups, day 63): 68.9 ng/L
time at which estradiol returned to near baseline and menses reoccurred in at least one subject ([3]; 2 × 45 mg one week apart): 1008 h p.f.a
estradiol mean (SD) concentration relative to baseline ([3]; 2 × 45 mg, after first injection, 48 h p.f.a.): −14.56 (9.95) ng/L
estradiol mean (SD) concentration relative to baseline ([3]; 2 × 45 mg, after second injection, 312 h p.f.a.): −14.20 (10.85) ng/L
estradiol concentrations when compared to placebo ([3]; both doses (60 mg; 2 × 45 mg), FIG. 1): significantly reduced
time at which estradiol returned to near baseline and menses reoccurred in at least one subject ([3]; single 60 mg): 840 h p.f.a
estradiol mean (SD) concentration relative to baseline ([3]; single 60 mg, 264 h p.f.a): −31.22 (23.11) ng/L
estradiol mean (SD) concentration relative to baseline ([3]; single 60 mg, 456 h p.f.a): −1.04 (90.98) ng/L
